This assay addresses T1, recombinant His-tag Y220C p53 DBD protein (Homo sapiens, UniProt P04637, Y220C).
T1 construct: recombinant His-tag Y220C p53 DBD protein (amino acids #˜94-312)
Nature of the assay: In vitro DNA binding activity assay (TR-FRET): binding of His-tag Y220C p53 DBD to biotin-labeled consensus DNA. The format is biochemical. The following applies: for Y220C SC150 (μM): SC150 = concentration to increase DNA binding by […], His-tag Y220C p53 DBD, biotin-labeled consensus DNA; for SC150 (μM): concentration to increase DNA binding by […], incubated at either 27° C. or 29° C. for 60 min. (TR-FRET usually uses a lanthanide donor and a delayed reading to cut background.)

`CN1CC[C@H](F)[C@H](Nc2cccc3c2cc(-c2noc(CNC(=O)c4cnn(C(C)(C)C)c4)n2)n3CC(F)(F)F)C1` [Compound 408B, 1-tert-butyl-N-{[3-(4-{[(3R,4S)-4-fluoro-1-methylpiperidin-3-yl]amino}-1-(2,2,2-trifluoroethyl)-1H-indol-2-yl)-1,2,4-oxadiazol-5-yl]methyl}-1H-pyrazole-4-carboxamide]: the “Y220C SC150 (μM)” value is on record as “* (* = 0 μM ≤ SC150 < 0.1 μM)”.

Consider `CN1CC[C@@H](Nc2cccc3c2cc(-c2noc(CNC(=O)c4ccn(C5(C)CCOC5)c4)n2)n3CC(F)(F)F)[C@@H](F)C1` (stereo partly drawn) [Compound 401B, N-{[3-(4-{[(3S,4R)-3-fluoro-1-methylpiperidin-4-yl]amino}-1-(2,2,2-trifluoroethyl)-1H-indol-2-yl)-1,2,4-oxadiazol-5-yl]methyl}-1-(3-methyloxolan-3-yl)-1H-pyrrole-3-carboxamide], for which the “Y220C SC150 (μM)” value is reported as “* (* = 0 μM ≤ SC150 < 0.1 μM)”.

Take `COc1ccc(C(=O)NCc2nnc(-c3cc4c(N[C@H]5CCN(C)C[C@H]5F)cccc4n3CC(F)(F)F)o2)cc1` (racemic) [Compound 117B, (+/−)-N-{[5-(4-{[(3R,4S)-3-fluoro-1-methylpiperidin-4-yl]amino}-1-(2,2,2-trifluoroethyl)-1H-indol-2-yl)-1,3,4-oxadiazol-2-yl]methyl}-4-methoxybenzamide]: the “Y220C SC150 (μM)” value is given as “** (** = 0.1 μM ≤ SC150 < 0.5 μM)”.

For the compound `CN1CC[C@@H](Nc2cccc3c2cc(-c2noc(CNC(=O)c4ccc(C(C)(C)C)s4)n2)n3CC(F)(F)F)[C@@H](F)C1` [Compound 422B, 5-tert-butyl-N-[[3-[4-[[(3S,4R)-3-fluoro-1-methyl-4-piperidyl]amino]-1-(2,2,2-trifluoroethyl)indol-2-yl]-1,2,4-oxadiazol-5-yl]methyl]thiophene-2-carboxamide], the “Y220C SC150 (μM)” value is “* (* = 0 μM ≤ SC150 < 0.1 μM)”.

As for `COC(=O)Nc1cccc(-c2cc3c(NC4CCS(=O)(=O)CC4)cccc3n2CC(F)(F)F)c1` [Compound 25A, methyl N-(3-{4-[(1,1-dioxo-1λ^6-thian-4-yl)amino]-1-(2,2,2-trifluoroethyl)-1H-indol-2-yl}phenyl)carbamate], the “SC150 (μM)” value is given as “+++ (+++ = 5 μM ≤ SC150 < 10 μM)”.

Regarding `CC(C)c1nc(C(=O)NCc2nc(-c3cc4c(N[C@@H]5CCN(C)C[C@@H]5F)cccc4n3CC(F)(F)F)no2)cn1C` [Compound 539B, N-{[3-(4-{[(3S,4R)-3-fluoro-1-methylpiperidin-4-yl]amino}-1-(2,2,2-trifluoroethyl)-1H-indol-2-yl)-1,2,4-oxadiazol-5-yl]methyl}-1-methyl-2-(propan-2-yl)-1H-imidazole-4-carboxamide], the “Y220C SC150 (μM)” value was “* (* = 0 μM ≤ SC150 < 0.1 μM)”.

Turning to `CC(C)(C)n1ccc(C(=O)NCc2nc(-c3cc4c(N[C@H]5CC[C@H](F)CC5)cccc4n3CC(F)(F)F)no2)c1` [Compound 354B, 1-tert-butyl-N-{[3-(4-{[(1r,4r)-4-fluorocyclohexyl]amino}-1-(2,2,2-trifluoroethyl)-1H-indol-2-yl)-1,2,4-oxadiazol-5-yl]methyl}-1H-pyrrole-3-carboxamide], the “Y220C SC150 (μM)” value is “* (* = 0 μM ≤ SC150 < 0.1 μM)”.

As for `COCCn1cnc(C(=O)NCc2nc(-c3cc4c(N[C@@H]5CCN(C)C[C@@H]5F)cccc4n3CC(F)(F)F)no2)c1` [Compound 297B, N-{[3-(4-{[(3S,4R)-3-fluoro-1-methylpiperidin-4-yl]amino}-1-(2,2,2-trifluoroethyl)-1H-indol-2-yl)-1,2,4-oxadiazol-5-yl]methyl}-1-(2-methoxyethyl)-1H-imidazole-4-carboxamide], the “Y220C SC150 (μM)” value was “* (* = 0 μM ≤ SC150 < 0.1 μM)”.

With `CC(C)(C)n1ccc(C(=O)NCc2nc(-c3cc4c(N[C@@H]5CCNC[C@@H]5F)cccc4n3CC(F)(F)F)no2)c1` [Compound 502B, 1-tert-butyl-N-{[3-(4-{[(3S,4R)-3-fluoropiperidin-4-yl]amino}-1-(2,2,2-trifluoroethyl)-1H-indol-2-yl)-1,2,4-oxadiazol-5-yl]methyl}-1H-pyrrole-3-carboxamide], the “Y220C SC150 (μM)” value is recorded as “* (* = 0 μM ≤ SC150 < 0.1 μM)”.

Take `COc1cc(S(C)(=O)=O)ccc1NCc1cnc(-c2cc3c(N[C@@H]4CCN(C)C[C@@H]4F)cccc3n2CC(F)(F)F)s1` [Compound 99B, N-[(3S,4R)-3-fluoro-1-methylpiperidin-4-yl]-2-(5-{[(4-methanesulfonyl-2-methoxyphenyl)amino]methyl}-1,3-thiazol-2-yl)-1-(2,2,2-trifluoroethyl)-1H-indol-4-amine]: the “Y220C SC150 (μM)” value is “* (* = 0 μM ≤ SC150 < 0.1 μM)”.

As for `CN1CC[C@H](Nc2cccc3c2cc(-c2ccc(CNc4ccc(S(C)(=O)=O)cc4)cc2)n3CC(F)(F)F)[C@H](F)C1` [Compound 44A, N-[(3R,4S)-3-fluoro-1-methylpiperidin-4-yl]-2-(4-{[(4-methanesulfonylphenyl)amino]methyl}phenyl)-1-(2,2,2-trifluoroethyl)-1H-indol-4-amine], the “SC150 (μM)” value was “+ (+ = 0 μM ≤ SC150 < 2 μM)”.

Turning to `CN(C)CCn1ccc(C(=O)NCc2nc(-c3cc4c(N[C@@H]5CCN(C)C[C@@H]5F)cccc4n3CC(F)(F)F)no2)c1` [Compound 229B, 1-[2-(dimethylamino)ethyl]-N-{[3-(4-{[(3S,4R)-3-fluoro-1-methylpiperidin-4-yl]amino}-1-(2,2,2-trifluoroethyl)-1H-indol-2-yl)-1,2,4-oxadiazol-5-yl]methyl}-1H-pyrrole-3-carboxamide], the “Y220C SC150 (μM)” value is recorded as “* (* = 0 μM ≤ SC150 < 0.1 μM)”.

As to `CN1CC[C@@H](Nc2cccc3c2cc(-c2noc(CNC(=O)c4cnn(C5CCC(F)(F)C5)c4)n2)n3CC(F)(F)F)[C@@H](F)C1` (stereo partly drawn) [Compound 344B, 1-(3,3-difluorocyclopentyl)-N-{[3-(4-{1[(3S,4R)-3-fluoro-1-methylpiperidin-4-yl]amino}-1-(2,2,2-trifluoroethyl)-1H-indol-2-yl)-1,2,4-oxadiazol-5-yl]methyl}-1H-pyrazole-4-carboxamide], the “Y220C SC150 (μM)” value is on record as “* (* = 0 μM ≤ SC150 < 0.1 μM)”.

As for `Cn1ccc(C(=O)NCc2nc(-c3cc4c(N[C@H]5CCN(C(C)(C)C)C[C@H]5F)cccc4n3CC(F)(F)F)no2)c1` [Compound 398B, N-{[3-(4-{[(3R,4S)-1-tert-butyl-3-fluoropiperidin-4-yl]amino}-1-(2,2,2-trifluoroethyl)-1H-indol-2-yl)-1,2,4-oxadiazol-5-yl]methyl}-1-methyl-1H-pyrrole-3-carboxamide], the “Y220C SC150 (μM)” value is “* (* = 0 μM ≤ SC150 < 0.1 μM)”.

With `CN1CCC(Nc2cccc3c2cc(-c2noc(CNC(=O)c4cccs4)n2)n3CC(F)(F)F)CC1` [Compound 143B, N-[(3-{4-[(1-methylpiperidin-4-yl)amino]-1-(2,2,2-trifluoroethyl)-1H-indol-2-yl}-1,2,4-oxadiazol-5-yl)methyl]thiophene-2-carboxamide], the “Y220C SC150 (μM)” value was “* (* = 0 μM ≤ SC150 < 0.1 μM)”.
